Laboratory results: article PMC7177638 (International Journal of Molecular Sciences, 2020)

How the values were obtained:
[1] = tested on: LoVo-OXP cancer cells; test: MTT cytotoxicity test, 72 h, oxaliplatin-resistant cells; assay type: cell-based, human; details: for IC50: LoVo OXP
Excerpt: (§1) Human colon (HCT-15 and LoVo) and pancreatic (PSN-1) carcinoma cell lines were obtained from the American Type Culture Collection (ATCC, RocKville, MD). The 2008 human ovarian cancer cells were kindly provided by Prof. G. Marverti (Dept. of Biomedical Science of Modena University, Italy). Human cervical carcinoma (A431) cells were kindly provided by Prof. F. Zunino (Division of Experimental Oncology B, Istituto Nazionale dei Tumori, Milan, Italy). […] Cell lines were maintained in the logarithmic phase at 37 °C in a 5% carbon dioxide atmosphere using RPMI-1640 or F-12 culture medium (Euroclone) containing 10% fetal calf serum (Euroclone, Milan, Italy), antibiotics (50 units per mL penicillin and 50 μg mL^−1 streptomycin), and 2 mM L-glutamine.
(§2) The growth inhibitory effect toward the tumor cell lines was evaluated by the MTT test. Briefly, 3-8·10^3 cells/well, depending upon the growth characteristics of the cell lines, were seeded in 96-well microplates in growth medium (100 µL) and then incubated at 37 °C in a 5% carbon dioxide atmosphere. After 24 h, the medium was removed and replaced with a fresh one containing the compound to be tested at the appropriate concentration. Triplicate cultures were established for each treatment. After 72 h, each well was treated with 10 µL of a 5 mg·mL^−1 MTT (3-(4,5-dimethylthiazol-2-yl)-2,5-diphenyltetrazolium bromide) saline solution and, after 5 h of incubation, 100 µL of a sodium dodecylsulfate (SDS) solution in HCl 0.01 M were added. Following an overnight incubation, the inhibition of cell growth induced by the tested complexes was evaluated by measuring the absorbance of each well at 570 nm using a Bio-Rad 680 microplate reader (Bio-Rad Laboratories S.r.l., Segrate (MI), Italy).

[2] = XPS Pt4f surface reduction of Pt(IV) to Pt(II) under X-ray irradiation; assay type: physicochemical; details: after 30 min irradiation, calculated from Pt(IV) abundances
Excerpt: The Pt(IV) complexes were also characterized by X-ray photoelectron spectroscopy (XPS) in order to obtain information on the surface chemical composition and on the platinum speciation. Despite the surface sensitivity of the technique (topmost 5–8 nm), the analysis on homogeneous samples provides useful information on the chemical environment of all detected elements. […] Two doublets were found: one is attributed to Pt(II) (BE Pt4f7/2 = 72.9 ± 0.2 eV and BE Pt4f5/2 = 76.2 ± 0.2 eV), while the second doublet is attributed to Pt(IV) (BE Pt4f7/2 = 75.6 ± 0.2 eV and BE Pt4f5/2 = 79.0 ± 0.2 eV).
The Pt(IV)/Pt(II) relative abundance varies from case to case; moreover, if the X-ray degradation is monitored after 30 min exposure to the X-ray beam, an increase of the Pt(II) relative abundance is observed (Figure 8b).
X-ray Photoelectron Spectroscopy (XPS) analyses were run on a PHI 5000 Versa Probe II Scanning XPS Microprobe spectrometer (ULVAC PHI Inc., Kanagawa, Japan). Measurements were carried out using a monochromatic Al Kα source (X-ray spot 200 μm) at a power of 50.3 W. Wide scan and detailed spectra (Pt4f, C1s, Cl2p, N1s, O1s) were acquired in Constant Analyzer Energy (CAE) mode with a pass energy of 117.40 and 29.35 eV, respectively. An electron gun was used for charge compensation (1.0 V, 20.0 μA). Due to the X-ray sensitivity of Pt(IV) complexes, the Pt4f spectral region was acquired first. X-ray degradation kinetics experiments were performed analyzing the same sample area after 30 min. Data processing was performed by using the MultiPak software v. 9.8.0.19.

[3] = tested on: human A431 cancer cell spheroids; test: Cytotoxicity towards 3D spheroids, acid phosphatase (APH) assay; assay type: cell-based; details: A431 3D spheroids, 72 h; for IC50: APH assay
Excerpt: The remarkable cell-killing effect observed against human A431 squamous cervical carcinoma two-dimensional (2D) cultured cells prompted us to evaluate the in vitro antitumor activity of compounds 1–6 on three-dimensional (3D) cell cultures. As opposed to 2D monolayer cultures, cells growing in 3D culture systems form spheroids that comprise cells in various stages. […] Such cellular heterogeneity resembles that of in vivo tumors, making 3D cell cultures more predictive than conventional 2D monolayer cultures in screening antitumor drugs.
Spheroid cultures were obtained by seeding 2.5 × 10^3 A431 cancer cells/well in a round bottom non-treated tissue culture 96 well-plate (Greiner Bio-one, Kremsmünster, Austria) in phenol red free RPMI-1640 medium (Sigma Chemical Co.) containing 10% fetal calf serum (FCS) and supplemented with 20% methyl cellulose stock solution.
An APH modified assay was used for determining cell viability in 3D spheroids, as previously described. IC50 values were calculated with a four parameter logistic (4-PL) model.

[4] = tested on: LoVo human colon carcinoma cells; test: MTT cytotoxicity test, 72 h; assay type: cell-based
Description: (§3) The in vitro cytotoxic activities of compounds 1–6 were assayed on a panel of human cancer cell lines containing examples of pancreatic (PSN-1), colon (HCT-15 and LoVo), cervical (A431), and ovarian (2008) cancers. Cisplatin and oxaliplatin were used as reference compounds and were tested under the same experimental conditions.
as §1, §2

[5] = tested on: 2008 human ovarian cancer cells; test: MTT cytotoxicity test, 72 h; assay type: cell-based; details: 2008, MTT
Description: as §3, §1, §2

[6] = tested on: PSN-1 human pancreatic carcinoma cells; test: MTT cytotoxicity test, 72 h; assay type: cell-based; details: PSN-1, MTT
Description: as §3, §1, §2

[7] = tested on: HCT-15 human colon carcinoma cells; test: MTT cytotoxicity test, 72 h; assay type: cell-based; details: HCT-15, MTT
Description: as §3, §1, §2

[8] = tested on: A431 human cervical carcinoma cells; test: MTT cytotoxicity test, 72 h; assay type: cell-based
Description: as §3, §1, §2

| Compound | effectiveness against sensitive (LoVo) versus resistant (LoVo-OXP) cells [1] | IC50 [1] [nM] | % of Reduction [2] [%] | efficacy in decreasing cancer spheroid viability, times higher than CDDP [3] | efficacy in decreasing cancer spheroid viability, times higher than OXP [3] | IC50 [3] [nM] | IC50 [4] [nM] | IC50 [5] [nM] | IC50 [6] [nM] | IC50 [7] [nM] | IC50 [8] [nM] |
| --- | --- | --- | --- | --- | --- | --- | --- | --- | --- | --- | --- |
| NC1CC=CCC1N.O=C([O-])C(=O)[O-].O=C([O-])c1ccccc1.O=C([O-])c1ccccc1.[Pt+4] (mixture of isomers) [Complex 3, cis,trans,cis-[Pt(OXA)(BzO)2(DACHEX)]] | equally effective | 90 ± 20 | 66 | about 32 | ~20 | 1800 ± 400 | 70 ± 20 | 140 ± 30 | 540 ± 300 | 410 ± 100 | 160 ± 70 |
| CC(=O)[O][Pt]1([Cl])[O]C(=O)C(=O)[O]1.NC1CC=CCC1N (racemic) [Complex 5, cis,trans,cis-[Pt(OXA)(AcO)Cl(DACHEX)]] | – | > 2000 | 67 | – | – | 26400 ± 5500 | 250 ± 50 | 930 ± 300 | 3580 ± 1400 | 1970 ± 400 | 1510 ± 600 |
| NC1CC=CCC1N.O=C1[O][Pt]([OH])([Cl])[O]C1=O (racemic) [Complex 6, cis,trans,cis-[Pt(OXA)(OH)Cl(DACHEX)]] | – | > 2000 | 64 | – | – | 30200 ± 3800 | 660 ± 20 | 1870 ± 400 | 5250 ± 1200 | 1670 ± 400 | 1310 ± 700 |
